Test results: PubChem BioAssay (NCI)
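96-well plates; 48 h exposure; 5 concentrations. Endpoints by linear interpolation between flanking doses. Not reached: highest tested concentration assigned. The concentration for 50% growth inhibition is given as GI50. At the TGI there is no net growth.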

Key:
Experiment in all cases: NCI anticancer screen, dose series, 48 h
TK-10 renal = system: TK-10 renal
ACHN renal = system: ACHN renal
K-562 leukemia = system: K-562 leukemia
HL-60(TB) leukemia = system: HL-60(TB) leukemia
HOP-62 NSCLC = system: HOP-62 NSCLC
DU-145 prostate = system: DU-145 prostate
SK-MEL-5 melanoma = system: SK-MEL-5 melanoma
UACC-62 melanoma = system: UACC-62 melanoma
MDA-MB-435 = system: MDA-MB-435
HS 578T breast = system: HS 578T breast
UO-31 renal = system: UO-31 renal
OVCAR-4 ovarian = system: OVCAR-4 ovarian
CCRF-CEM leukemia = system: CCRF-CEM leukemia
HCT-116 colon = system: HCT-116 colon
A498 renal = system: A498 renal
CAKI-1 renal = system: CAKI-1 renal
786-0 renal = system: 786-0 renal
SN12C renal = system: SN12C renal
MCF7 breast = system: MCF7 breast
OVCAR-5 ovarian = system: OVCAR-5 ovarian
SNB-19 CNS = system: SNB-19 CNS
HT29 colon = system: HT29 colon
SW-620 colon = system: SW-620 colon
T-47D breast = system: T-47D breast
NCI-H460 lung = system: NCI-H460 lung
SF-295 CNS = system: SF-295 CNS
NCI/ADR-RES ovarian = system: NCI/ADR-RES ovarian
EKVX NSCLC = system: EKVX NSCLC

SMILES: Fc1cccc(Cl)c1Cn1c(-c2c(F)cccc2Cl)nc2ccccc21
- GI50 (TK-10 renal): 15.6 µM
- TGI (TK-10 renal): 39.8 µM
- GI50 (ACHN renal): 18.9 µM
- TGI (ACHN renal): 41.4 µM
- GI50 (K-562 leukemia): 10.1 µM
- TGI (K-562 leukemia): > 100 µM
- GI50 (HL-60(TB) leukemia): 3.86 µM
- TGI (HL-60(TB) leukemia): 74.6 µM
- GI50 (HOP-62 NSCLC): 23.2 µM
- TGI (HOP-62 NSCLC): 50.6 µM
- GI50 (DU-145 prostate): 24.6 µM
- TGI (DU-145 prostate): 56.1 µM
- GI50 (SK-MEL-5 melanoma): 11.6 µM
- TGI (SK-MEL-5 melanoma): 29.8 µM
- GI50 (UACC-62 melanoma): 12.8 µM
- TGI (UACC-62 melanoma): 29.8 µM
- GI50 (MDA-MB-435): 20.1 µM
- TGI (MDA-MB-435): 61.7 µM
- GI50 (HS 578T breast): 21.6 µM
- TGI (HS 578T breast): 65.3 µM
- GI50 (UO-31 renal): 12.4 µM
- TGI (UO-31 renal): 28.4 µM
- GI50 (OVCAR-4 ovarian): 23.6 µM
- TGI (OVCAR-4 ovarian): 58.3 µM
- GI50 (CCRF-CEM leukemia): 26.2 µM
- TGI (CCRF-CEM leukemia): > 100 µM
- GI50 (HCT-116 colon): 34.4 µM
- TGI (HCT-116 colon): > 100 µM
- GI50 (A498 renal): 19.2 µM
- TGI (A498 renal): 36.6 µM
- GI50 (CAKI-1 renal): 24 µM
- TGI (CAKI-1 renal): 47.5 µM
- GI50 (786-0 renal): 21 µM
- TGI (786-0 renal): 42.6 µM
- GI50 (SN12C renal): 15.7 µM
- TGI (SN12C renal): 30.8 µM
- GI50 (MCF7 breast): 20 µM
- TGI (MCF7 breast): 57.8 µM
- GI50 (OVCAR-5 ovarian): 24.9 µM
- TGI (OVCAR-5 ovarian): 95.8 µM
- GI50 (SNB-19 CNS): 18.4 µM
- TGI (SNB-19 CNS): 48.1 µM
- GI50 (HT29 colon): 30 µM
- TGI (HT29 colon): > 100 µM
- GI50 (SW-620 colon): 16.8 µM
- TGI (SW-620 colon): 38 µM
- GI50 (T-47D breast): 13.9 µM
- TGI (T-47D breast): 62.9 µM
- GI50 (NCI-H460 lung): 13.1 µM
- TGI (NCI-H460 lung): 34.1 µM
- GI50 (SF-295 CNS): 16.8 µM
- TGI (SF-295 CNS): 46.8 µM
- GI50 (NCI/ADR-RES ovarian): 18.7 µM
- TGI (NCI/ADR-RES ovarian): 54.4 µM
- GI50 (EKVX NSCLC): 13.3 µM
- TGI (EKVX NSCLC): 32.6 µM
